Experimental data from paper PMC6017749, “Exploring N-acyl-4-azatetracyclo[5.3.2.0^2,6.0^8,10]dodec-11-enes as 11β-HSD1 Inhibitors” (Molecules : A Journal of Synthetic Chemistry and Natural …, 2018).
Like-named read-outs stand apart in the source and are kept apart here.

Legend:
human 11β-HSD2 [1] = molecular target: T1, human 11β-HSD2 (Homo sapiens, UniProt P80365); details: cited from earlier work; for IC50: read-out: HEK hHSD2 IC50
T1 construct: stably transfected with the full-length gene coding for human 11β-HSD2; expressed in transfected cells; host or cells: HEK293
T1 sequence (P80365 1-405): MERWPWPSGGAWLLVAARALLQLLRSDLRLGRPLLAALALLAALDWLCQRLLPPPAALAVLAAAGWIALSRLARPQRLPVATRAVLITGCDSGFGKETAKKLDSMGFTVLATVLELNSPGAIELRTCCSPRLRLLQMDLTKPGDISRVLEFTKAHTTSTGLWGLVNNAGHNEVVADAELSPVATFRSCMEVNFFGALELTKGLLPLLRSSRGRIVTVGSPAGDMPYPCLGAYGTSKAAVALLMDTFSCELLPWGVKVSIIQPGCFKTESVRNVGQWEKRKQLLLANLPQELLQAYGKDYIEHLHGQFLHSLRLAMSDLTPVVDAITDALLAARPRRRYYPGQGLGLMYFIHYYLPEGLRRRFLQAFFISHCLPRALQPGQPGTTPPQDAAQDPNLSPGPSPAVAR

[2] = set-up: method as in PMID 21471376, PMID 26306982; details: remaining compound after 30-min incubation in human liver microsomes; cited from earlier work
human 11β-HSD1 [3] = molecular target: T2, human 11β-HSD1 (Homo sapiens, UniProt P28845); assay: Cellular 11β-HSD1 enzyme inhibition assay (HEK293 stably transfected, cortisol by LC/MS); format: cell-based; details: for inhibition at 10 µM: HEK293 transfected with human 11β-HSD1, read-out: HEK hHSD1 % inh at 10 µM
T2 construct: The assay uses human liver microsomes (HLM), where the enzyme is expressed; tissue Celsis In-vitro Technologies; host or cells: mixed sex human liver microsomes
T2 sequence (P28845 whole entry): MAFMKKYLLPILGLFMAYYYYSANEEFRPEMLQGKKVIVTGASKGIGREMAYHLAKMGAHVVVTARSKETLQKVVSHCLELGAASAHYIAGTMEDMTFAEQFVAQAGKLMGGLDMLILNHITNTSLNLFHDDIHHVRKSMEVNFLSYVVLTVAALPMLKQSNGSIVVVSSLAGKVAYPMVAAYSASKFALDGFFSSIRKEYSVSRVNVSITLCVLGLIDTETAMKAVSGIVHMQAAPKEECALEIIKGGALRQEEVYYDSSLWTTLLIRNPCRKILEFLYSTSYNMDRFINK
Protocol: Those compounds with submicromolar IC50 values (4, 6, 8, 9 and 16) were further evaluated in terms of cellular potency, selectivity over 11β-HSD2, and metabolic stability as follows (Table 2, 5th, 6th, and 7th column, respectively). Cellular potency was assessed using Human Embryonic Kidney 293 (HEK293) cells stably transfected with the 11β-HSD1 gene. Cells were incubated with substrate (cortisone) and percentage of inhibition was determined by measuring the conversion of cortisone to cortisol by LC/MS. The results were in line with the previous results obtained in the microsomal assay.
The cellular 11β-HSD1 enzyme inhibition assay was performed using HEK293 cells stably transfected with the human 11β-HSD1 gene. Cells were incubated with substrate (cortisone) and product (cortisol) was determined by LC/MS. Cells were plated at 2 × 10^4 cells/well in a 96-well poly-D-lysine coated tissue culture microplate (Greiner Bio-one, Monroe, NC, USA) and incubated overnight at 37 °C in 5% CO2 […]. Compounds to be tested were solubilized in 100% dimethylsulfoxide (DMSO) at 10 mM and serially diluted in water and 10% DMSO to final concentration of 10 µM in 10% DMSO. Then 10 µL of each test dilution and 10 µL of 10% DMSO (for low and high control) were dispensed into the well of a new 96-well microplate (Greiner Bio-one). Medium was removed from the cell assay plate and 100 µL of Dulbecco’s Modified Eagle’s Medium DMEM solution (containing 1% penicillin, 1% streptomycin and 300 nM cortisone) added to each well. Cells were incubated for 2 h at 37 °C in 5% CO2 […]. Following incubation, medium was removed from each well into an Eppendorf containing 500 µL of ethyl acetate, mixed by vortex and incubated at r.t. for 5 min. A calibration curve of known concentrations of cortisol in assay medium was also set up and added to 500 µL of ethyl acetate, vortexed and incubated as above. The supernatant of each Eppendorf was removed to a 96-deep-well plate and dried down under […] at 65 °C. Each well was solubilized in 100 µL 70:30 H2O:acetonitrile (ACN) and removed to a 96-well V-bottomed plate for LC/MS analysis. Separation was carried out on a Sunfire 150 × 2.1 mm, […] column using a H2O:ACN gradient profile. Typical retention times were 2.71 min for cortisol and 2.80 min for cortisone. The peak area was calculated and the concentration of each compound determined from the calibration curve. Reported values are the average of 1–3 measurements.

[4] = Microsomal stability assay in human liver microsomes; format: in vitro ADME; details: remaining compound after 30-min incubation in HLM
Protocol: (§1) Selectivity over 11β-HSD2 was also assessed in a cell-based assay using the same methodology as before (HEK293 stably transfected with the 11β-HSD2 gene). […] Finally, metabolic stability was determined using HLM, which are widely used to predict the degree of primary metabolic clearance in the liver. Each compound was incubated over 30 min with HLM and the percentage of remaining compound after this incubation period was determined by calculating compound concentration after and before by LC/MS.
The microsomal stability of each compound was determined using human liver microsomes (HLM, Celsis In-vitro Technologies, Baltimore, MD, USA). Microsomes were thawed and diluted to a concentration of 2 mg/mL in 50 mM sodium phosphate buffer pH 7.4. Each compound was diluted in 4 mM NADPH (made in the phosphate buffer above) to a concentration of 10 µM. Two identical incubation plates were prepared to act as a 0 min and a 30 min time point assay. 30 µL of each compound dilution was added in duplicate to the wells of a U-bottom 96-well plate and warmed at 37 °C for approximately 5 min. Verapamil, lidocaine, and propranolol at 10 µM concentration were utilized as reference compounds in this experiment. Microsomes were also pre-warmed at 37 °C before the addition of 30 µL to each well of the plate resulting in a final concentration of 1 mg/mL. The reaction was terminated at the appropriate time point (0 or 30 min) by addition of 60 µL of ice-cold 0.3 M trichloroacetic acid (TCA) per well. The plates were centrifuged for 10 min at 112× g and the supernatant fraction transferred to a fresh U-bottom 96-well plate. Plates were sealed and frozen at −20 °C prior to MS analysis. LC-MS/MS was used to quantify the peak area response of each compound before and after incubation with HLM using MS tune settings established and validated for each compound. These peak intensity measurements were used to calculate the percentage remaining after incubation with HLM for each hit compound. Reported values are the average of 1–3 measurements.

human 11β-HSD1 [5] = molecular target: T2, human 11β-HSD1; assay: 11β-HSD1 enzyme inhibition assay in human liver microsomes (3H-cortisone to 3H-cortisol, SPA); format: biochemical; details: human liver microsomes; for inhibition at 10 µM: relative to no inhibitor control, read-out: hHSD1 % inh at 10 µM; for IC50: read-out: hHSD1 IC50
Protocol: A preliminary screen was performed using a human microsome assay with compounds at 10 µM in order to assess their potential inhibition of the target enzyme (Table 2). Percentage of inhibition was determined by measuring the conversion of ^3H-cortisone to ^3H-cortisol by capturing liberated ^3H-cortisol on anti-cortisol (HyTest Ltd., Turku, Finland)-coated scintillation proximity assay beads. The assay uses human liver microsomes (HLM), where the enzyme is expressed, and NADPH as the cofactor needed by the enzyme. Eight of the thirteen new compounds presented 100% inhibition of the human 11β-HSD1 in this single concentration assay, so dose-response curves were performed to get their IC50 values.
11β-HSD1 activity was determined in mixed sex, human liver microsomes (HLM, Celsis In-vitro Technologies) by measuring the conversion of ^3H-cortisone to ^3H-cortisol. Percentage inhibition was determined relative to a no inhibitor control. An amount of 5 μg of HLM were pre-incubated at 37 °C for 15 min with inhibitor and 1 mM NADPH in a final volume of 90 μL Krebs buffer. 10 μL of 200 nM ^3H-cortisone was then added followed by incubation at 37 °C for a further 30 min. The assay was terminated by rapid freezing on dry ice and ^3H-cortisone to ^3H-cortisol conversion determined in 50 μL of the defrosted reaction by capturing liberated ^3H-cortisol on anti-cortisol (HyTest Ltd)-coated scintillation proximity assay beads (protein A-coated YSi, GE Healthcare). Reported values are the average of 1–3 measurements. A nanomolar 11β-HSD1 inhibitor, UE2316, was added as a positive control within in each set of assays.

human 11β-HSD2 [6] = molecular target: T1, human 11β-HSD2; assay: Cellular 11β-HSD2 enzyme inhibition assay (HEK293 stably transfected); format: cell-based; details: for inhibition at 10 µM: HEK293, 10 µM, read-out: HEK hHSD2 % inh at 10 µM
Protocol: as §1
For measurement of inhibition of 11β-HSD2, HEK293 cells stably transfected with the full-length gene coding for human 11β-HSD2 were used. The protocol was the same as for the cellular 11β-HSD1 enzyme inhibition assay, only changing the substrate, this time cortisol, and the concentrations of the tested compounds, 10, 1, and 0.1 µM. Reported values are the average of 1–3 measurements.

[7] = system: Senescence-Accelerated Mouse Prone 8 (SAMP8); set-up: method as in PMID 28818766; details: 12-month-old SAMP8 mice, four weeks; cited from earlier work
[8] = set-up: method as in PMID 21471376, PMID 26306982; details: remaining compound in mouse liver microsomes; cited from earlier work
human 11β-HSD1 [9] = molecular target: T2, human 11β-HSD1; set-up: method as in PMID 21471376, PMID 26306982; details: previous inhibitors of the group; read-out: hHSD1 IC50; cited from earlier work
mHSD1 = system: mHSD1; set-up: method as in PMID 21471376, PMID 26306982; details: murine enzyme; cited from earlier work
[10] = 10 µM, HEK293 transfected with human 11β-HSD2
[11] = HEK293 transfected with human 11β-HSD2

Row | inhibition at 10 µM (human 11β-HSD1 [3]) [%] | HLM % Parent [4] [%] | inhibition at 10 µM (human 11β-HSD1 [5]) [%] | IC50 (human 11β-HSD1 [5]) [µM] | inhibition at 10 µM (human 11β-HSD2 [6]; [11]) [%] | HEK hHSD1 % inh at 10 µM (human 11β-HSD1 [3]; HEK293 transfected with human 11β-HSD1) | melting point [°C] | HEK hHSD2 % inh at 10 µM (human 11β-HSD2 [6]; [10]) [%] | selectivity index over 11β-HSD2 (human 11β-HSD2 [6]; 11β-HSD2 IC50 versus 11β-HSD1 IC50) [fold] | IC50 (human 11β-HSD2 [6]; inferred from 54% inhibition at 10 µM in HEK293 cells, read-out: IC50 against 11β-HSD2) [µM] | SMILES | HEK hHSD2 % inh 10 µM (human 11β-HSD2 [1]; [10]) [%] | HLM % Parent [2] [%] | selectivity index against 11β-HSD2 isoform (human 11β-HSD2 [1]; 11β-HSD2 versus 11β-HSD1) | IC50 (human 11β-HSD2 [1]; [11]) [µM] | effect on memory deficits [7] | neuroprotective action [7] | MLM % Parent [8] [%] | IC50 (human 11β-HSD1 [9]) [µM] | IC50 (mHSD1) [µM]
1 | – | – | – | – | – | – | – | – | – | – | O=C(NC1C2CC3CC(C2)CC1C3)C1CCCCC1 (stereo not drawn) [Compound 1] | 88 | 74 | – | – | – | – | – | – | –
2 | 100 | 27 | 100 | 0.019 | 69 | – | – | – | – | – | O=C(C1CCCCC1)N1CC2C3C=CC(C4CC34)C2C1 (stereo not drawn) [Compound 2] | – | 27 | at least 50 fold | 1 to 10 | – | – | – | – | –
3 | – | – | – | – | – | – | – | – | – | – | O=C(C1CCCCC1)N1CC2C3CCC(C4CC34)C2C1 (stereo not drawn) [Compound 3] | – | 94 | – | 0.1 to 1 | prevented memory deficits | displayed a neuroprotective action through reduction of neuroinflammation and oxidative stress | 93 | 0.029 | 0.081
4 | 100 | 13 | 100 | 0.377 | 54 | complete inhibition | 160 to 161 | 53 | 30 | ~10 | N#Cc1ccc(N2CCN(c3ccc(C(=O)N4CC5C6C=CC(C7CC67)C5C4)cn3)CC2)cc1 (stereo not drawn) [Compound 16, 4-[[4-[5-(4-Azatetracyclo[5.3.2. 0^2,6.0^8,10]dodec-11-en-4-yl)carbonyl]pyridin-2-yl]piperazin-1-yl]benzonitrile] | – | – | – | – | – | – | – | – | –
